Experimental data taken from US20250082931A1, “Treating Gastric Cancer Using TTFields Combined with XELOX, FOLFOX or the Individual Constituents Thereof” (Novocure GmbH, priority 2019, published 2025).

How the values were obtained:
[1] = test system: AGS cells; assay: Apoptosis analysis by Annexin V / 7AAD staining; assay type: cell-based; settings: for AnnV+ 7AAD+ cell fraction / AnnV+ 7AAD− cell fraction / AnnV− 7AAD+ cell fraction / AnnV− 7AAD− cell fraction: 72 h
Procedure: After 72 h of treatment the media and the cells were collected, and cytotoxicity was determined by cell counts. Cells (including cells from the media) were stained for Annexin V and 7AAD for apoptosis analysis. For the testing of the clonogenic effect, cells were seeded for colonies.
Cells were seeded on inovitro dishes and petri dishes 24 h before starting the experiments. Media containing the indicated concentration of each chemotherapy component alone or FOLFOX and control media was added to the cells and the dishes were connected to TTFields (as in SOP-BI-009) or grown in 37° C., 5% CO2 for 72 h. Each treatment included 8 repeats (8 dishes). The media was replaced every 24 h. At the end of the experiment the cells were collected, and cytotoxicity was determined by cell counts, small number of cells were seeded for colonies and the cells (including cells from the media) were stained for Annexin V and 7AAD for apoptosis analysis.
Apoptotic effect: Average of cell fraction of each marker staining (Annexin V and 7AAD) of at least 5 dishes from each treatment was calculated in Excel software. The averages from these repeats was calculated to averages and is presented in stacked bar graph using GraphPed software.

[2] = test system: KATO III cells; assay: Clonogenic effect (colonies count); settings: for colonies count: 72 h;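 as to all read-outs here: after treatment, KATO III cells were reseeded and grown 6–14 days, then colonies were fixed, stained and counted, expressed as percent of untreated (no drug) control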
Procedure: (§1) After 72 h of treatment the media and the cells were collected, and cytotoxicity was determined by cell counts. […] For the testing of the clonogenic effect, cells were seeded for colonies.
(§2) After 6-14 days the colonies were fixed, stained and counted to determine clonogenic effect. The overall effect was calculated by multiplying the cytotoxic effect and the clonogenic effect.
(§3) Clonogenic effect: The colonies from each well were counted using ImageJ software. Average and standard deviation of colony number of at least 5 wells from each treatment were calculated in excel software. The averages from these repeats was calculated to averages and standard errors and is presented as percent from control (no drug treatment) in XY graph of points with error bars using GraphPed software. Significant was determine by 2-way ANOVA followed Multiple comparison using GraphPed software.

[3] = test system: AGS cells; assay: Clonogenic effect (colonies count); assay type: cell-based; settings: 72 h
Procedure: as §1, §2, §3

[4] = 50 nM, + TTFields 150 kHz 1.0 V/cm
[5] = 100 nM, + TTFields 150 kHz 1.0 V/cm
[6] = 200 nM, + TTFields 150 kHz 1.0 V/cm
[7] = 400 nM, + TTFields 150 kHz 1.0 V/cm
[8] = 25 nuM, + TTFields 150 kHz 1.0 V/cm
[9] = FOLFOX experiment, 50 nM, + TTFields 150 kHz 1.0 V/cm
[10] = FOLFOX experiment, 50 nM, no TTFields

Compound: O=C1[O][Pt]2([NH][C@@H]3CCCC[C@H]3[NH]2)[O]C1=O [Oxaliplatin]
- elevation in percent of cells that undergo apoptosis, drug + TTFields compared to drug alone [1]: higher
- AnnV+ 7AAD+ cell fraction ([1]; 25 nM, no TTFields): 4.00%
- AnnV+ 7AAD− cell fraction ([1]; 25 nM, no TTFields): 6.55%
- AnnV− 7AAD+ cell fraction ([1]; 25 nM, no TTFields): 1.35%
- AnnV− 7AAD− cell fraction ([1]; 25 nM, no TTFields): 88.10%
- AnnV+ 7AAD+ cell fraction [1, 4]: 11.65%
- AnnV+ 7AAD− cell fraction [1, 4]: 8.40%
- AnnV− 7AAD+ cell fraction [1, 4]: 3.10%
- AnnV− 7AAD− cell fraction [1, 4]: 76.90%
- AnnV+ 7AAD+ cell fraction ([1]; 50 nM, no TTFields): 4.83%
- AnnV+ 7AAD− cell fraction ([1]; 50 nM, no TTFields): 5.08%
- AnnV− 7AAD+ cell fraction ([1]; 50 nM, no TTFields): 2.08%
- AnnV− 7AAD− cell fraction ([1]; 50 nM, no TTFields): 88.00%
- AnnV+ 7AAD+ cell fraction [1, 5]: 12.78%
- AnnV+ 7AAD− cell fraction [1, 5]: 9.78%
- AnnV− 7AAD+ cell fraction [1, 5]: 2.23%
- AnnV− 7AAD− cell fraction [1, 5]: 75.20%
- AnnV+ 7AAD+ cell fraction ([1]; 100 nM, no TTFields): 7.00%
- AnnV+ 7AAD− cell fraction ([1]; 100 nM, no TTFields): 6.45%
- AnnV− 7AAD+ cell fraction ([1]; 100 nM, no TTFields): 1.63%
- AnnV− 7AAD− cell fraction ([1]; 100 nM, no TTFields): 84.93%
- AnnV+ 7AAD+ cell fraction [1, 6]: 14.54%
- AnnV+ 7AAD− cell fraction [1, 6]: 11.10%
- AnnV− 7AAD+ cell fraction [1, 6]: 3.78%
- AnnV− 7AAD− cell fraction [1, 6]: 70.58%
- AnnV+ 7AAD+ cell fraction [1, 7]: 17.83%
- AnnV+ 7AAD− cell fraction [1, 7]: 11.40%
- AnnV− 7AAD+ cell fraction [1, 7]: 4.50%
- AnnV− 7AAD− cell fraction [1, 7]: 66.23%
- AnnV+ 7AAD+ cell fraction ([1]; 400 nM, no TTFields): 10.87%
- AnnV+ 7AAD− cell fraction ([1]; 400 nM, no TTFields): 6.70%
- AnnV− 7AAD+ cell fraction ([1]; 400 nM, no TTFields): 1.83%
- AnnV− 7AAD− cell fraction ([1]; 400 nM, no TTFields): 80.60%
- AnnV+ 7AAD+ cell fraction [1, 8]: 9.00%
- AnnV+ 7AAD− cell fraction [1, 8]: 7.65%
- AnnV− 7AAD+ cell fraction [1, 8]: 0.75%
- AnnV− 7AAD− cell fraction [1, 8]: 82.60%
- AnnV+ 7AAD+ cell fraction ([1]; 200 nuM, no TTFields): 7.64%
- AnnV+ 7AAD− cell fraction ([1]; 200 nuM, no TTFields): 7.00%
- AnnV− 7AAD+ cell fraction ([1]; 200 nuM, no TTFields): 1.46%
- AnnV− 7AAD− cell fraction ([1]; 200 nuM, no TTFields): 83.92%
- AnnV+ 7AAD+ cell fraction [1, 9]: 10.3%
- AnnV+ 7AAD− cell fraction [1, 9]: 7.2%
- AnnV− 7AAD+ cell fraction [1, 9]: 4.4%
- AnnV− 7AAD− cell fraction [1, 9]: 78.2%
- AnnV+ 7AAD+ cell fraction [1, 10]: 4.6%
- AnnV+ 7AAD− cell fraction [1, 10]: 5.1%
- AnnV− 7AAD+ cell fraction [1, 10]: 0.2%
- AnnV− 7AAD− cell fraction [1, 10]: 90.1%
- colonies count ([2]; 50 nM, + TTFields 150 kHz 1.6 V/cm): 46 % from control
- colonies count ([2]; 50 nM, no TTFields): 71 % from control
- colonies count ([2]; 100 nM, + TTFields 150 kHz 1.6 V/cm): 54 % from control
- colonies count ([2]; 100 nM, no TTFields): 74 % from control
- colonies count ([2]; 200 nM, + TTFields 150 kHz 1.6 V/cm): 42 % from control
- colonies count ([2]; 200 nM, no TTFields): 70 % from control
- colonies count ([2]; 400 nM, + TTFields 150 kHz 1.6 V/cm): 17 % from control
- colonies count ([2]; 400 nM, no TTFields): 23 % from control
- colonies number (clonogenic effect and overall effect), drug + TTFields compared to drug alone ([2]; Two-way ANOVA P<0.001): significant reduction in colonies number
- colonies count ([3]; 25 nM, + TTFields 150 kHz 1.0 V/cm): 67 % from control
- colonies count ([3]; 25 nM, no TTFields): 91 % from control
- colonies count [3, 4]: 70 % from control
- colonies count ([3]; 50 nM, no TTFields): 92 % from control
- colonies count [3, 5]: 61 % from control
- colonies count ([3]; 100 nM, no TTFields): 97 % from control
- colonies count [3, 6]: 43 % from control
- colonies count ([3]; 200 nM, no TTFields): 77 % from control
- colonies count [3, 7]: 18 % from control
- colonies count ([3]; 400 nM, no TTFields): 36 % from control
